Key:
D(2) dopamine receptor = D(2) dopamine receptor (Homo sapiens, UniProt P14416); experiment: Binding affinity to dopamine D2S receptor (unknown origin) by radioligand displacement assay
D(3) dopamine receptor = D(3) dopamine receptor (Homo sapiens, UniProt P35462); experiment: Binding affinity to dopamine D3 receptor (unknown origin) by radioligand displacement assay
Homo sapiens = organism: Homo sapiens; experiment: Ratio of Ki for binding affinity to D2S (unknown origin) to Ki for binding affinity to D3R (unknown origin)

Sequence of D(3) dopamine receptor (P35462 whole entry): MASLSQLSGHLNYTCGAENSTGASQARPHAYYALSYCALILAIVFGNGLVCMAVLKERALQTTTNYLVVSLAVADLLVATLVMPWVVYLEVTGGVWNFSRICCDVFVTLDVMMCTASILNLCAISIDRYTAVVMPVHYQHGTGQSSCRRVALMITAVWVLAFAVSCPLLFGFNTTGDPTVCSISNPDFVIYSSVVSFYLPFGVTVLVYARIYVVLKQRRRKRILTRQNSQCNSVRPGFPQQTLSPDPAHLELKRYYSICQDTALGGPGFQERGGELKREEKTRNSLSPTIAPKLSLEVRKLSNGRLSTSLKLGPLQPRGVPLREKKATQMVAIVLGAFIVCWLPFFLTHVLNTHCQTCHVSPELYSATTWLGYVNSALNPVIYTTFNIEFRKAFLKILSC
Sequence of D(2) dopamine receptor (P14416 whole entry): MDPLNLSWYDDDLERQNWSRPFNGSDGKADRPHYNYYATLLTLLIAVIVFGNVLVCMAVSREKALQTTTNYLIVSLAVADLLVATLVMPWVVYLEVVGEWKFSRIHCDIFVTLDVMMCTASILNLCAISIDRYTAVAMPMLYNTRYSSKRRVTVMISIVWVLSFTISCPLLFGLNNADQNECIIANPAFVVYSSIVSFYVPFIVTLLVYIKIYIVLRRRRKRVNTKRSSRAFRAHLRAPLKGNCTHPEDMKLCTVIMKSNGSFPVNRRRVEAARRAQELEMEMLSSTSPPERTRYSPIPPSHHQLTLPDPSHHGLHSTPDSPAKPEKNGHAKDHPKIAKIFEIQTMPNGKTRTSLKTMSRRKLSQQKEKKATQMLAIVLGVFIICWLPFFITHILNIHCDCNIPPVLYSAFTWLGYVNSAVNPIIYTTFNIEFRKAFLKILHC

| Ki (D(2) dopamine receptor) | Ki (D(3) dopamine receptor) | Ratio Ki (Homo sapiens) | Structure (SMILES) |
| --- | --- | --- | --- |
| 182 nM | 16.7 nM | 10.9 | COc1ccccc1N1CCN(CCCCNC2=CC=CC3=[N+]4[N+](=Cc5cc6ccccc6n5[B-]4(F)F)[B-](F)(F)N23)CC1 |
| 497 nM | 52.1 nM | 9 | CCc1c(C)c2n(c1C)[B-](F)(F)[N+]1=C3C=CC=C(NCCCCN4CCN(c5cccc(Cl)c5Cl)CC4)N3[B-](F)(F)[N+]1=C2 |
| 328 nM | 22.5 nM | 14.6 | Cc1cc(C)n2c1C=[N+]1[N+](=C3C=CC=C(NCCCCN4CCN(c5cccc(Cl)c5Cl)CC4)N3[B-]1(F)F)[B-]2(F)F |
| 309 nM | 34.3 nM | 9.5 | CCc1c(C)c2n(c1C)[B-](F)(F)[N+]1=C3C=CC=C(NCCCCN4CCN(c5ccccc5OC)CC4)N3[B-](F)(F)[N+]1=C2 |
| 81.1 nM | 27.2 nM | 3 | COc1ccccc1N1CCN(CCCCNC2=CC=CC3=[N+]4[N+](=Cc5c(C)cc(C)n5[B-]4(F)F)[B-](F)(F)N23)CC1 |
